From US4670469A, “Hydroxamic acid and pharmaceutical preparations containing the same” (VEB Arzneimittelwerk Dresden, priority 1983, dated 1987)
Like-named read-outs stand apart in the source and are kept apart here.

What was measured:
guinea pig lung strips [1] = experiment: Arachidonic acid-induced spasm of isolated guinea pig lung strips; details: active substance 100 μM
Excerpt: They display in animal experimental tests on isolated lung strips from guinea pigs a pronounced antiasthmatic effect. The testing of the mentioned pharmacological characteristics follows according to the principles of measuring techniques known from the literature, which come into use in modified form (G. M. Drazen et al. G. Clin. Invest. 63 1 (1979); M. W. Schneider and G. M. Drazen Amer. Rev. Resp. Dis. 121 835 (1980); S. S. Yen and W. Kreutner, Agents Actions 10 274 (1980); S. S. Yen Prostaglandins 22, 183 (1981)).
The compounds of Formula I effect a significant restraint on arachidonic acid-induced bronchial constriction (1.5.10^-5 M arachidonic acid) in the guinea pig lung preparations (see, Example 6). Also with the addition of a cyclooxygenase inhibitor to the measuring system this effect was unaltered, and to some extent stronger, detectably. These experimental results permit without a doubt the conclusion that the compounds of Formula I involve inhibitors of the lipoxygerase pathway of arachidonic utilization, and the above described pharmacological effect is grounded upon this mechanism of activity.
(§1) The testing of the compounds for antiasthmatic activity follows on isolated lung strips and isolated tracheal rings from guinea pigs according to measuring methods known from the literature (supra) in modified form. The measurements follow in thermostatically controlled organ bath, isotonically using a contraction measuring arrangement with lift receiver, measuring coil, measuring amplifier (inductive measurement with the aid of a high frequency resonant circuit). The gasification follows with air. The suspension solution has the following composition: 39.46 g NaCl, 2.2 g KCl, 6.07 g Tris, 1.0 g CaCl2, 9.9 g glucose, 1.0 ml saturated MgCl2 -solution, 43 ml 1N HCl; pH 7.4.
(a) Activity on spasm of the guinea pig lung strips, induced by exogenous arachidonic acid.
The spasm is triggered by rising concentrations of arachidonic acid (concentrated solution in ethanol, stored in N2 -atmosphere) and is cumulatively measured. […] The active substance caused a highly significant displacement to the right of the Dose-Activity curves for arachidonic acid, visible by a clear elevation of the ED50 - and ED84 -values. The effect can be described through the following activity index: [formula] In an analogous manner, the index i84 is determined from the measured data.

guinea pig lung strips [2] = experiment: Activity on the basal tones of guinea pig lung strips; details: Cavia porcellus, basal tone, cumulative dose-activity curve
Excerpt: as §1
(c) Activity on the basal tones of guinea pig lung strips.
Increasing concentrations of the active substance are added to the suspension medium. There occurs a dilatation, which is cumulatively measured. From the Dose-Activity-curves are provided the following parameters: […]

[3] = biological target: T1, lipoxygenase from rabbit reticulocytes (Oryctolagus cuniculus, UniProt P12530); experiment: Inhibition of the activity of lipoxygenase from rabbit reticulocytes (oxygen consumption, Clark electrode); format: biochemical
T1 construct: The lipoxygenase from rabbit reticulocytes is obtained in electrophoretically and immunologically pure form; from tissue; host or cells: rabbit reticulocytes
T1 sequence (P12530 1-663): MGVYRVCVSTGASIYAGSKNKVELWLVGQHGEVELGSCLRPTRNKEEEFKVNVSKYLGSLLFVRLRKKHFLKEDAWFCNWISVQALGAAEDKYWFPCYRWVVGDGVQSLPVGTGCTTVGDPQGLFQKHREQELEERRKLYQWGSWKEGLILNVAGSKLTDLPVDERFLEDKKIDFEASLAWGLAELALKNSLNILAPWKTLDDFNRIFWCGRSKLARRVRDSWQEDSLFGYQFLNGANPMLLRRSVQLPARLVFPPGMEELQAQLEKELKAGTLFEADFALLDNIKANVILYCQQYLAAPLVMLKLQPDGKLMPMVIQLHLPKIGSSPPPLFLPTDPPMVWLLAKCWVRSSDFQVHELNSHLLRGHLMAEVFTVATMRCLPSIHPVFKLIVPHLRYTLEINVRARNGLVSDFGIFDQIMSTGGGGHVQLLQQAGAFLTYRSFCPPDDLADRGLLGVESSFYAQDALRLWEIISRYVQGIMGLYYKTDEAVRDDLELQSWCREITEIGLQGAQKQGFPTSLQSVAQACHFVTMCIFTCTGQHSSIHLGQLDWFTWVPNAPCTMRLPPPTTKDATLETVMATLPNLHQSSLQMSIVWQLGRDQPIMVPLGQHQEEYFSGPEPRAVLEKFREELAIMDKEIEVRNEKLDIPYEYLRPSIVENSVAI
Description: The lipoxygenase from rabbit reticulocytes was obtained in electrophoretically and immunologically pure form according to a technique known from the literature (S. M. Rapoport et al. Methods in Enzymology 71, 430 (1981)). The determination of lipoxygenase activity follows at 25° C. through the polarographic measurement of the oxygen consumption by means of Clark Electrode in a standardized system.
Through variation of the substance concentrations, the titration curves of the inhibition and therefrom the inhibition concentrations (I-value) of the compounds can be determined.
The testing of compounds for antiasthmatic, antiallergenic, inflammation-inhibiting and antithrombotic activity on the basis on the inhibition of the lipoxygenase reaction of the arachidonic acid cascade follows in a molecular/pharmacological test system. […] The lipoxygenase from rabbit reticulocytes is obtained in electrophoretically and immunologically pure form according to the techniques described in the literature (supra). The determination of the lipoxygenase activity follows at 25° C. through the polorographic measurement of oxygen consumption by means of a Clark-electrode in the following system: 0.1M potassiumphosphate, pH 7.4, with 0.2 percent sodium cholate and 0.53 mM linoleic acid. The enzyme concentration in the measurement preparation came to 25 nM. The compounds to be tested are dissolved in methylglycol (freshly distilled in a vacuum) and pre-incubated for 15 minutes at the measuring temperature in the absence of sodium cholate and linoleic acid. […] The enzyme reaction is started by the addition of sodium cholate and linoleic acid.

lipoxygenase from peas = experiment: Inhibition of lipoxygenase from peas; format: biochemical; details: read-out: I50
Description: (§2) The inhibition of thrombocyte aggregation is likewise ascribed to the inhibition of lipoxygenase in the cells. It has thus been shown that the arachidonate-lipoxygenase activity of a microsome-free lysate of human thrombocyte concentrates is inhibited to the extent of 100% by means of 0.25 mM salicylhydroxamic acid. Moreover, it has been shown that also a series of further lipoxygenases are inhibited by means of the here described hydroxamic acids. The lipoxygenase from soybeans reacts the most insensitive, i.e. it is inhibited by means of 1 mM salicylhydroxamic acid at pH 7.4 to an extent of 60% and by means of 0.4 mM 2-hydroxy-1-napthylhydroxamic acid to an extent of 54%. In contrast, for the lipoxygenase from peas which come closer in their characteristics to human lipoxygenase, the following I50 -values are provided: salicyl hydroxamic acid, 5 μM, 2-hydroxy-1-napthylhydroxamic acid, 2 μM, 2(2'-napthoxy)-acethydroxamic acid, 2 μM. Moreover it has been shown that the formation lipoxygenase products of arachidonic acid in in vitro cultivated aorta endothelial cells of calves is hindered through 0.1 mM 2-hydroxy-1-napthylhydroxamic acids.

[4] = biological target: T2, arachidonate-lipoxygenase of human thrombocyte (Homo sapiens, UniProt P18054); experiment: Arachidonate-lipoxygenase activity of microsome-free lysate of human thrombocyte concentrates; format: biochemical; details: 0.25 mM
T2 construct: microsome-free lysate of human thrombocyte concentrates; from tissue; host or cells: human thrombocyte (platelet) concentrates, microsome-free lysate
T2 sequence (P18054 whole entry): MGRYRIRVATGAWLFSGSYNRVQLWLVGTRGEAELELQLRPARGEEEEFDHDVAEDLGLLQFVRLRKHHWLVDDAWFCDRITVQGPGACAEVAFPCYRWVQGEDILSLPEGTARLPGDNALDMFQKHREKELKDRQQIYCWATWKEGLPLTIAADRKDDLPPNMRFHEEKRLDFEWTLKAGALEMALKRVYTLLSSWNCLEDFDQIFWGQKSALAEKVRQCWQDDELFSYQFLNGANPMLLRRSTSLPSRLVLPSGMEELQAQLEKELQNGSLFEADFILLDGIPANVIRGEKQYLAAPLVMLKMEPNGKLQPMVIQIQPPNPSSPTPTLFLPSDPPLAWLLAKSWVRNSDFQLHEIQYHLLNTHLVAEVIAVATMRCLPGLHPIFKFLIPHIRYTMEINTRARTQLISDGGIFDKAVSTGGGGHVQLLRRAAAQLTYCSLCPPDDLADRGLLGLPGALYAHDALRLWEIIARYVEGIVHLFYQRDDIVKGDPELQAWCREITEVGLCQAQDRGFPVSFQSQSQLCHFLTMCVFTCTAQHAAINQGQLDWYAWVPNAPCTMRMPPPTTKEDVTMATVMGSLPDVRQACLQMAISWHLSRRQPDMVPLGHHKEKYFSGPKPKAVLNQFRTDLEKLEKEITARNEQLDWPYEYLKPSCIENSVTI
Description: as §2

Compound | activity index i50 (displacement of arachidonic acid ED50) (guinea pig lung strips [1]) | activity index i84 (displacement of arachidonic acid ED84) (guinea pig lung strips [1]) | EC50 (guinea pig lung strips [2]; read-out: ED50 (dilatation)) [µM] | EC84 (guinea pig lung strips [2]; read-out: ED84 (dilatation)) [µM] | IC50 ([3]; 25° C., pH 7.4, 0.53 mM linoleic acid, 15 min pre-incubation, read-out: I50) [µM] | IC84 ([3]; 25° C., pH 7.4, 0.53 mM linoleic acid, 15 min pre-incubation, read-out: I84) [µM] | IC50 (lipoxygenase from peas) [µM] | IC50 [3] [µM] | inhibition at 250 µM [4] [%]
O=C(COc1ccc2ccccc2c1)NO [2(2'-naphthoxy)-acethydroxamic acid] | 5.8 | 7.1 | 14 | 27 | 2.5 | 9 | 2 | – | –
O=C(NO)c1ccccc1O [salicylhydroxamic acid] | 1.9 | 8.5 | – | – | – | – | 5 | 20 | 100
